Entries after “also recorded” stand apart in the source; their conditions may differ.
Assays:
diabetic rats [1] = conditions: streptozocin diabetic rats, sciatic nerve; amount administered not specified; cited from earlier work
rats = conditions: 10 mg/kg cisplatin s.c. seven days, oral 300 mg/kg acetyl L-carnitine, 300 mg/kg carnitine mixture, 50 mg/kg α-lipoic acid; cited from earlier work
[2] = tested on: diabetic polyneuropathy patients; conditions: cited from earlier work
diabetic rats [3] = conditions: diabetic rat, 30 days after sciatic nerve cutting; diet: 200 mg/kg acetyl L-carnitine, 200 mg/kg carnitine mixture, 50 mg/kg α-lipoic acid daily; cited from earlier work
[4] = tested on: streptozotocin-induced diabetic rats; conditions: 20 mg/kg/day for two weeks, six weeks after diabetes induction; vs untreated diabetic rats; cited from earlier work
Wobbler mice = conditions: twenty days oral, acetyl L-carnitine 200 mg/kg, carnitine mixture 200 mg/kg, α-lipoic acid 50 mg/kg; cited from earlier work
mice and rats = conditions: mice and rats, cited from earlier work
C. elegans [5] = assay: Toxicity testing in C. elegans, 96 well plate, bacterial clearance (OD620); assay type: in vivo; conditions: highest concentration tested, 2 mM; L1-stage N2 animals, OD620 up to 44 hours; listed as LC
Experimental: The work plan included a i) characterization of the compounds for toxicity in C. elegans and then, using subtoxic concentrations, a ii) characterization of compound effects on neuronal sensitivity as detected by TAV technology. Toxicity characterization follows a well established standard operating protocol used in previous toxicity-type assays in C. elegans. The initial TAV characterization of compound-mediated effects on C. elegans used a number of compound concentrations and incubation times that were selected by NemaRx as being most likely to detect any TAV-related effects that the compounds may have. […] 0% provides a ‘background’ measure, 6% typically gives intermediate TAV responses (and as such should provide a good starting point to detect compound-mediated increased TAV responses), and 12% usually gives robust responses. No obvious effects were detected for either of the four compounds. While the experimental setup provides a good first pass, the limitation lies in the relatively small number of animals that are assayed at each intensity (30). Subtle effects compound-mediated up-regulation at 6% laser intensity may be missed. • Single Intensity Testing: The two highest non-toxic compound concentrations for each of the four compounds were tested at 6% laser intensity. The number of datapoints collected was between 50-80 LA and >100 for the three other compounds. […] The experiment was carried out in quadruplicate. […] Stock Dilution Setup
Two 96 well microtiter plates set up which were incubated at 20 C (both 96 well plates were identical, i.e. the experiment was done in duplicate). Each well on the plates was set up with 100 L1-stage N2 animals in NGM with a 1:20 dilution of concentrated HB101 E. coli (food source) in a volume of 50 μl. Compounds (see below) were then added to the wells. For water controls and compound stocks/dilutions in water (DH LA, NAC) 1 μl was added to each well (1:50 dilutions). For DMSO controls and compound stocks/dilutions in DMSO (LA) 0.5 μl was added to each well (1:100 dilutions). […]

[6] = Hydrolysis study of LC Conjugate (pH/time study, followed by TLC); assay type: physicochemical
Experimental: Control: Free lipoic acid 1% solution in methanol/water
Substrate: LC Conjugate, 3% solution in methanol
A study on the stability and cleavability of LC Conjugate was performed in water at pH ranged from 5.5 to 8.0 at RT (20° C.).
The pH was adjusted using NaOH and HCl solutions.
Since substrate and cleaved products are non-UV sensitive, TLC was used to follow the progress of hydrolysis.

C. elegans [7] = assay: Thermal avoidance (TAV) 11 step dose response testing; assay type: in vivo; conditions: highest concentration of LC, laser intensities 0% to 100% in 10% intervals, quadruplicate
Experimental: One 24 well microtiter plate was set up and incubated overnight on the shaker at 20° C. Each well on the plate was set up with 600 L3/L4-stage N2 animals in NGM with a 1:20 dilution of concentrated HB101 E. coli (food source) in a volume of 300 μl. Before the animal/HB101 solution was added, test compounds were pipetted into wells. For DMSO controls and compound stocks/dilutions in DMSO (LC) 3 μl was added to each well (1:100 dilutions). No OD620 measurements were taken but the animals were visually scored after 22 h incubation).
Dose Responses—setup & general notes on analysis: Same as for previous dose response experiments except that the data collection settings were modified. Per plate settings for the dose response experiments were as follows: […]

Row | Compound | NMCV (diabetic rats [1]) [m/sec] | Equilibrium time (rats) [s] | neuropathic symptoms and defects ([2]; 600 mg i.v. per day for 3 weeks) | neuropathic defects and cardiac autonomic neuropathy ([2]; subsequent oral treatment for 4-7 months) | Density of tibial nerve degenerate elements (diabetic rats [3]) [per 100 nm^2] | Number of tibial nerve degenerate elements (diabetic rats [3]) | sciatic endoneutral blood flow [4] | sciatic motor nerve NCV [4] | % increase in running time (Wobbler mice) [%] | tolerability and toxicity (mice and rats; individually or in combination at high doses) | dose that can be parenterally administered (mice and rats; parenteral) [mg/kg] | toxicity (C. elegans [5]) | cleavability ([6]; under experimental conditions) | Rate of hydrolysis (cleavage) ([6]; water, pH 5.5 to 8.0, RT) | hydrolysis ([6]; water, pH 6.0, RT (20° C.), TLC, visual observation) | rate of hydrolysis ([6]; water, pH 7.0 and above, RT (20° C.), TLC, visual observation) | time within which almost complete hydrolysis was noted ([6]; water, pH 8.0, RT (20° C.), TLC, visual observation) [min] | stability ([6]; water, under pH 5.0, RT (20° C.), TLC, visual observation) | sensitivity / response rate in 11 step dose response (C. elegans [7]; listed as LC) | sensitivity / response rate in 11 step dose response (C. elegans [7]; listed as Lipoic Acid+N-Acetyl Carnitine conjugate)
1 | O=C(O)CCCCC1CCSS1 (centres unmarked) [LA, Lipoic acid] | 39.9 ± 2.1 | 9.9 ± 0.8 | appears to reduce pain, paraethesia and numbness, and to improve neuropathic defects | reduces neuropathic defects an improves cardiac autonomic neuropathy | 0.20 ± 0.04 | 590 ± 0.70 | improved | improved | 40 ± 3.9 | good tolerability and limited toxicity | ≤ 100 | – | – | – | – | – | – | – | – | –
2 | Acetyl-L-Carnitine-Lipoic acid conjugate [LC Conjugate] | – | – | – | – | – | – | – | – | – | – | – | No toxic effects; also recorded: no toxicity observed | completely cleavable | pH dependent | Mild hydrolysis | quite noticeable | ≤ 90 | stable | increases sensitivity not at lower stimulus intensities, but instead at higher intensities | Possible higher response rate at higher stimulus intensities
